Source: publication PMC6522510 (Nature Communications, 2019)
Counter-ions that a name gives are not always drawn.

How the values were obtained:
CMK = tested on: CMK; parameters: species or system AML cell lines (8); Primary HTS, single concentration about 10 uM, Cell Titer Glo viability; log10 luminescence, per cent inhibition relative to cycloheximide control; settings: 72 h, relative to cycloheximide control, log10 luminescence; inhibitor
U937 = tested on: U937; parameters: species or system AML cell lines (8); Primary HTS, single concentration about 10 uM, Cell Titer Glo viability; log10 luminescence, per cent inhibition relative to cycloheximide control; settings: 72 h, relative to cycloheximide control, log10 luminescence; inhibitor
CMS = tested on: CMS; parameters: species or system AML cell lines (8); Primary HTS, single concentration about 10 uM, Cell Titer Glo viability; log10 luminescence, per cent inhibition relative to cycloheximide control; settings: 72 h, relative to cycloheximide control, log10 luminescence; inhibitor
MOLM-13 = tested on: MOLM-13; parameters: species or system AML cell lines (8); Primary HTS, single concentration about 10 uM, Cell Titer Glo viability; log10 luminescence, per cent inhibition relative to cycloheximide control; settings: 72 h, relative to cycloheximide control, log10 luminescence; inhibitor
M07e [1] = tested on: M07e; parameters: species or system AML cell lines (8); Primary HTS, single concentration about 10 uM, Cell Titer Glo viability; log10 luminescence, per cent inhibition relative to cycloheximide control; settings: 72 h, relative to cycloheximide control, log10 luminescence; inhibitor
CHRF288-11 = tested on: CHRF288-11; parameters: species or system AML cell lines (8); Primary HTS, single concentration about 10 uM, Cell Titer Glo viability; log10 luminescence, per cent inhibition relative to cycloheximide control; settings: 72 h, relative to cycloheximide control, log10 luminescence; inhibitor
MV4-11 [2] = tested on: MV4-11; parameters: species or system AML cell lines (8); Primary HTS, single concentration about 10 uM, Cell Titer Glo viability; log10 luminescence, per cent inhibition relative to cycloheximide control; settings: 72 h, relative to cycloheximide control, log10 luminescence; inhibitor
ML-2 = tested on: ML-2; parameters: species or system AML cell lines (8); Primary HTS, single concentration about 10 uM, Cell Titer Glo viability; log10 luminescence, per cent inhibition relative to cycloheximide control; settings: 72 h, relative to cycloheximide control, log10 luminescence; inhibitor
MV4-11 [3] = assay: cells; parameters: species or system AML cell lines (8); Secondary HTS, 10-point dose-response in triplicate, Cell Titer Glo viability, four-parameter fit EC50; settings: Homo sapiens, MV4-11, 72 h, read-out: MV4-11
M07e [4] = assay: cells; parameters: species or system AML cell lines (8); Secondary HTS, 10-point dose-response in triplicate, Cell Titer Glo viability, four-parameter fit EC50; settings: M-07e, 72 h, read-out: M07e

In the case of `CC(C)C[C@H](N)[C@](O)(Cc1cnc[nH]1)C(=O)O` [SJ000772431-1, LEUHISTIN], the CMK %inh (CMK) is reported as -1.024%, the U937 %inh (U937) is reported as 2.882% and the CMS %inh (CMS) is reported as 1.294%. For the same compound, the MOLM-13 %inh (MOLM-13) was 0.702%, the M07e %inh (M07e [1]) was 1.038% and the CHRF288-11 %inh (CHRF288-11) was 4.998%. The MV4-11 %inh (MV4-11 [2]) was 3.279% and the ML-2 %inh (ML-2) was 5.093%.

`O=C(O)C(Cc1ccc2c(c1)oc1ccccc12)NCP(=O)(O)O` (stereo not drawn) [SJ000772433-1, CGS 35066] showed a CMK %inh (CMK) of -1.634%, a U937 %inh (U937) of 0.4141% and a CMS %inh (CMS) of -0.6949%. It also gave an MOLM-13 %inh (MOLM-13) of 2.239%, an M07e %inh (M07e [1]) of 2.079% and a CHRF288-11 %inh (CHRF288-11) of 0.3778%. The MV4-11 %inh (MV4-11 [2]) was 3.69% and the ML-2 %inh (ML-2) was 5.201%.

With `C[C@H](NC(=O)Cc1cc(F)cc(F)c1)C(=O)N[C@H](C(=O)OC(C)(C)C)c1ccccc1` [SJ000772434-1, DAPT | DAPT (GSI-IX)] the CMK %inh (CMK) was -0.675%, the U937 %inh (U937) was 0.2025% and the CMS %inh (CMS) was 0.2641%. It also gave an MOLM-13 %inh (MOLM-13) of 2.225%, an M07e %inh (M07e [1]) of 1.132% and a CHRF288-11 %inh (CHRF288-11) of 2.669%. It also gave an MV4-11 %inh (MV4-11 [2]) of 5.48% and an ML-2 %inh (ML-2) of 5.016%.

With `NC(CCC(=O)NOC(=O)c1ccccc1)C(=O)N1CCCC1` (stereo not drawn) [SJ000773150-1] the CMK %inh (CMK) was -2.389%, the U937 %inh (U937) was -0.8595% and the CMS %inh (CMS) was -1.088%. The MOLM-13 %inh (MOLM-13) was 1.337%, the M07e %inh (M07e [1]) was 3.014% and the CHRF288-11 %inh (CHRF288-11) was -3.643%. It also gave an MV4-11 %inh (MV4-11 [2]) of -0.09979% and an ML-2 %inh (ML-2) of 1.208%.

`Cc1c[nH]c(/C=C2\C(=O)Nc3ccccc32)c1CCC(=O)O` [SJ000773151-1, SU 5402 |] showed a CMK %inh (CMK) of 3.453%, a U937 %inh (U937) of -1.966% and a CMS %inh (CMS) of 2.629%. For the same compound, the MOLM-13 %inh (MOLM-13) was 64.04%, the M07e %inh (M07e [1]) was 7.079% and the CHRF288-11 %inh (CHRF288-11) was 8.965%. For the same compound, the MV4-11 %inh (MV4-11 [2]) was 45.76% and the ML-2 %inh (ML-2) was -0.6671%.

Work on `NC(=O)c1cc(-c2ccc(Cl)cc2)cc(-c2ccc(S(N)(=O)=O)cc2)c1N` [SJ000773162-1, IKK INHIBITOR XII] yielded a CMK %inh (CMK) of 7.074%, a U937 %inh (U937) of 5.575% and a CMS %inh (CMS) of 0.8646%. The MOLM-13 %inh (MOLM-13) was 3.294%, the M07e %inh (M07e [1]) was -0.482% and the CHRF288-11 %inh (CHRF288-11) was 5.412%. The MV4-11 %inh (MV4-11 [2]) was 6.438% and the ML-2 %inh (ML-2) was 2.717%.

With `O=C(N/N=C/c1coc2ccccc2c1=O)c1cccnc1` [SJ000773164-1, STAT5 INHIBITOR] the CMK %inh (CMK) was 0.4302%, the U937 %inh (U937) was 1.718% and the CMS %inh (CMS) was -3.081%. For the same compound, the MOLM-13 %inh (MOLM-13) was 0.6226%, the M07e %inh (M07e [1]) was -2.508% and the CHRF288-11 %inh (CHRF288-11) was 2.609%. For the same compound, the MV4-11 %inh (MV4-11 [2]) was 5.196% and the ML-2 %inh (ML-2) was 0.5689%.

Work on `CCOC(=O)c1c(C)[nH]c(/C=C2\C(=O)Nc3ccccc32)c1C` [SJ000773165-1, VEGFR2 KINASE INHIBITOR I] yielded a CMK %inh (CMK) of 1.896%, a U937 %inh (U937) of -1.551% and a CMS %inh (CMS) of -2.877%. For the same compound, the MOLM-13 %inh (MOLM-13) was 14.97%, the M07e %inh (M07e [1]) was -1.094% and the CHRF288-11 %inh (CHRF288-11) was 3.3%. The MV4-11 %inh (MV4-11 [2]) was 4.438% and the ML-2 %inh (ML-2) was -1.978%.

`O=C1Cc2c([nH]c3ccc(Br)cc23)-c2ncccc2N1` [SJ000773177-1, 1-AZAKENPAULLONE] showed a CMK %inh (CMK) of -2.288%, a U937 %inh (U937) of 4.514% and a CMS %inh (CMS) of 11.6%. For the same compound, the MOLM-13 %inh (MOLM-13) was 1.556%, the M07e %inh (M07e [1]) was 0.4716% and the CHRF288-11 %inh (CHRF288-11) was 3.099%. For the same compound, the MV4-11 %inh (MV4-11 [2]) was 9.942% and the ML-2 %inh (ML-2) was 3.703%.

In the case of `Nc1[nH]nc2nnc(-c3c(-c4ccccc4)nn4ccccc34)cc12` [SJ000773182-1, FR 180204], the CMK %inh (CMK) is reported as 2.552%, the U937 %inh (U937) is reported as 0.5636% and the CMS %inh (CMS) is reported as 0.8706%. It also gave an MOLM-13 %inh (MOLM-13) of 10.92%, an M07e %inh (M07e [1]) of 4.808% and a CHRF288-11 %inh (CHRF288-11) of 4.206%. It also gave an MV4-11 %inh (MV4-11 [2]) of 11.54% and an ML-2 %inh (ML-2) of 1.644%.

Compound `O=C(O)c1cc2cc(O)c(O)cc2c(C(=O)c2ccc(O)c(O)c2)n1` [SJ000773184-1, NBI-31772] has a CMK %inh (CMK) of 20.66%, a U937 %inh (U937) of 2.592% and a CMS %inh (CMS) of 0.1786%. For the same compound, the MOLM-13 %inh (MOLM-13) was 2.784%, the M07e %inh (M07e [1]) was 0.05281% and the CHRF288-11 %inh (CHRF288-11) was -3.882%. It also gave an MV4-11 %inh (MV4-11 [2]) of 0.9533% and an ML-2 %inh (ML-2) of 4.963%.

`N#Cc1cnc2cnc(NCc3cccnc3)cc2c1Nc1ccc(F)c(Cl)c1` [SJ000773185-1, TPL2 KINASE INHIBITOR] was tested, and the CMK %inh (CMK) was 12.32%, the U937 %inh (U937) was 7.932% and the CMS %inh (CMS) was -1.042%. The MOLM-13 %inh (MOLM-13) was 88.46%, the M07e %inh (M07e [1]) was 3.597% and the CHRF288-11 %inh (CHRF288-11) was 6.987%. It also gave an MV4-11 %inh (MV4-11 [2]) of 3.7% and an ML-2 %inh (ML-2) of -0.1066%.

`CC/C(=C(\c1ccccc1)c1ccc(OCCN(C)C)cc1)c1ccccc1` [TAMOXIFEN CITRATE] showed an EC50 (MV4-11 [3]) greater than 10 µM.

`COc1cc(OC)c(/C=C/S(=O)(=O)Cc2ccc(OC)c(NCC(=O)O)c2)c(OC)c1` [rigosertib] gave an EC50 (MV4-11 [3]) of 0.0124 µM and an EC50 (M07e [4]) greater than 10 µM.
